Laboratory results reported in ChEMBL document CHEMBL3243925, “Disteroidyl ethers. 1. Synthesis and oral long-lasting uterotrophic activity of 1,3,5(10)-estratrien-17-yl enol ethers of 3-keto steroids” (1977).
Active and inactive are the calls of the source. The calls are words filed in the database; no cut-off is given here.

Experiments:
[1] = system: Rattus norvegicus; assay: Uterotrophic activity in spayed Wistar rat assessed as autopsies by measuring uterus weight at 0.1 umol, po after 2 weeks (reference value: 15.9 +/- 0.50 mg); assay type: functional
[2] = system: Rattus norvegicus; assay: Uterotrophic activity in spayed Wistar rat assessed as autopsies by measuring uterus weight at 0.1 umol, po after 1 week (reference value: 15.1 +/- 0.51 mg); assay type: functional

| Compound | Activity [1] | Activity [2] |
| --- | --- | --- |
| CC(=O)[C@H]1CC[C@H]2[C@@H]3CC=C4C=C(O[C@H]5CC[C@H]6[C@@H]7CCc8cc(OC(=O)c9ccccc9)ccc8[C@H]7CC[C@]56C)CC[C@@H]4[C@H]3CC[C@]12C | 28.5 mg | 29.1 mg |
| CCC(=O)O[C@H]1CC[C@H]2[C@@H]3CC[C@@H]4C=C(O[C@H]5CC[C@H]6[C@@H]7CCc8cc(OC(=O)c9ccccc9)ccc8[C@H]7CC[C@]56C)CC[C@]4(C)[C@H]3CC[C@]12C | 19.9 mg | 21.2 mg |
| CC(=O)O[C@]1(C(C)=O)CC[C@H]2[C@@H]3CC(C)=C4C=C(O[C@H]5CC[C@H]6[C@@H]7CCc8cc(OC(=O)c9ccccc9)ccc8[C@H]7CC[C@]56C)CC[C@]4(C)[C@H]3CC[C@@]21C | 21.9 mg | 26.6 mg |
| C#C[C@]1(OC(C)=O)CC[C@H]2[C@@H]3CC=C4C=C(O[C@H]5CC[C@H]6[C@@H]7CC(=O)c8cc(OC(=O)c9ccccc9)ccc8[C@H]7CC[C@]56C)CC[C@@H]4[C@H]3CC[C@@]21C | inactive | inactive |
| C#C[C@]1(OC(C)=O)CC[C@H]2[C@@H]3CC=C4C=C(O[C@H]5CC[C@H]6[C@@H]7CCc8cc(OC(=O)CCCCCC)ccc8[C@H]7CC[C@]56C)CC[C@@H]4[C@H]3CC[C@@]21C | 18.9 mg | 29.5 mg |
| CC(=O)O[C@H]1CC[C@H]2[C@@H]3CC[C@H]4C=C(O[C@H]5CC[C@H]6[C@@H]7CCc8cc(OC(=O)c9ccccc9)ccc8[C@H]7CC[C@]56C)C=C[C@]4(C)[C@H]3CC[C@]12C | 20.1 mg | 21.3 mg |
| C[C@]12CCC(O[C@H]3CC[C@H]4[C@@H]5CCc6cc(O)ccc6[C@H]5CC[C@]34C)C[C@@H]1CC[C@@H]1[C@@H]2CC[C@]2(C)[C@@H](O)CC[C@@H]12 (stereo partly drawn) | inactive | inactive |
| C#C[C@]1(OC(=O)CCCCCC)CC[C@H]2[C@@H]3CC=C4C=C(O[C@H]5CC[C@H]6[C@@H]7CCc8cc(OC9CCCC9)ccc8[C@H]7CC[C@]56C)CC[C@@H]4[C@H]3CC[C@@]21C | 15.2 mg | 19.8 mg |
| C#C[C@]1(O)CC[C@H]2[C@@H]3CC=C4C=C(O[C@H]5CC[C@H]6[C@@H]7CCc8cc(OC(C)=O)ccc8[C@H]7CC[C@]56C)CC[C@@H]4[C@H]3CC[C@@]21C | 32.7 mg | 39.2 mg |
| C#C[C@]1(OC(=O)CCCCCC)CC[C@H]2[C@@H]3CC=C4C=C(O[C@H]5CC[C@H]6[C@@H]7CCc8cc(OC(=O)C(C)C)ccc8[C@H]7CC[C@]56C)CC[C@@H]4[C@H]3CC[C@@]21C | 30.4 mg | 37.2 mg |
| C#C[C@]1(OC(=O)CCCCCC)CC[C@H]2[C@@H]3CC=C4C=C(O[C@H]5CC[C@H]6[C@@H]7CCc8cc(OC)ccc8[C@H]7CC[C@]56C)CC[C@@H]4[C@H]3CC[C@@]21C | 15.4 mg | 18.2 mg |
| C#C[C@@]1(O)CC[C@H]2[C@@H]3CC=C4C=C(O[C@H]5CC[C@H]6[C@@H]7CCc8cc(O)ccc8[C@H]7CC[C@]56C)CC[C@@H]4[C@H]3CC[C@@]21C | inactive | inactive |
| C#C[C@]1(OC(=O)C(C)OCC)CC[C@H]2[C@@H]3CC=C4C=C(O[C@H]5CC[C@H]6[C@@H]7CCc8cc(OC(C)OCC)ccc8[C@H]7CC[C@]56C)CC[C@@H]4[C@H]3CC[C@@]21C (stereo partly drawn) | 18 mg | 23.6 mg |
| C#C[C@]1(OC(=O)CCCCCC)CC[C@H]2[C@@H]3CC=C4C=C(O[C@H]5CC[C@H]6[C@@H]7CCc8cc(OC(=O)c9ccccc9)ccc8[C@H]7CC[C@]56C)CC[C@@H]4[C@H]3CC[C@@]21C | 24.2 mg | 35.6 mg |
| C[C@]12CC[C@H]3[C@@H](CC=C4C=C(O[C@H]5CC[C@H]6[C@@H]7CCc8cc(OC9CCCC9)ccc8[C@H]7CC[C@]56C)CC[C@@H]43)[C@@H]1CC[C@@H]2OC(=O)CCC(=O)O | 31.8 mg | 28.9 mg |
| CCC(=O)O[C@H]1CC[C@H]2[C@@H]3CC=C4C=C(O[C@H]5CC[C@H]6[C@@H]7CCc8cc(OC(=O)c9ccccc9)ccc8[C@H]7CC[C@]56C)CC[C@]4(C)[C@H]3CC[C@]12C | 31 mg | 49.4 mg |
| C[C@]12CC[C@@H]3c4ccc(OC(=O)CCC(=O)O)cc4CC[C@H]3[C@@H]1CC[C@@H]2OC1=CC2=CC[C@@H]3[C@H](CC[C@]4(C)C(=O)CC[C@@H]34)[C@H]2CC1 | 36.8 mg | 60.7 mg |

| Compound | Activity [1] | Activity [2] |
| --- | --- | --- |
| C#C[C@]1(O)CC[C@H]2[C@@H]3CC=C4C=C(O[C@H]5CC[C@H]6[C@@H]7CCc8cc(O)ccc8[C@H]7CC[C@]56C)CC[C@@H]4[C@H]3CC[C@@]21C | 23.3 mg | 40.5 mg |
| CC(=O)[C@@H]1CC[C@H]2[C@@H]3CC=C4C=C(O[C@H]5CC[C@H]6[C@@H]7CCc8cc(OC(=O)c9ccccc9)ccc8[C@H]7CC[C@]56C)CC[C@@H]4[C@H]3CC[C@]12C | inactive | inactive |
| C#C[C@]1(O)CC[C@H]2[C@@H]3CCc4cc(OC5CCCC5)ccc4[C@H]3CC[C@@]21C [QUINESTROL] | 29 mg | 39 mg |
| C#C[C@]1(OC(C)=O)CC[C@H]2[C@@H]3CC=C4C=C(O[C@H]5CC[C@H]6[C@@H]7CCc8cc(OC(C)OCC)ccc8[C@H]7CC[C@]56C)CC[C@@H]4[C@H]3CC[C@@]21C (stereo partly drawn) | 19.3 mg | 30.3 mg |
| C#C[C@]1(OC(C)=O)CC[C@H]2[C@@H]3CC=C4C=C(O[C@H]5CC[C@H]6[C@@H]7CCc8cc(OC(C)=O)ccc8[C@H]7CC[C@]56C)CC[C@@H]4[C@H]3CC[C@@]21C | 25.4 mg | 36.6 mg |
| CC(=O)O[C@@]1(C)CC[C@H]2[C@@H]3CC=C4C=C(O[C@H]5CC[C@H]6[C@@H]7CCc8cc(OC(=O)c9ccccc9)ccc8[C@H]7CC[C@]56C)CC[C@]4(C)[C@H]3CC[C@@]21C | 21.5 mg | 26.4 mg |
| C#C[C@]1(OC(=O)CCCCCC)CC[C@H]2[C@@H]3CC=C4C=C(O[C@H]5CC[C@H]6[C@@H]7CCc8cc(OC(C)=O)ccc8[C@H]7CC[C@]56C)CC[C@@H]4[C@H]3CC[C@@]21C | 28.7 mg | 31.7 mg |
| CC(=O)O[C@H]1CC[C@H]2[C@@H]3CC=C4C=C(O[C@H]5CC[C@H]6[C@@H]7CCc8cc(OC(=O)c9ccccc9)ccc8[C@H]7CC[C@]56C)CC[C@@H]4[C@H]3CC[C@]12C | 31.6 mg | 48 mg |
| C[C@]12CC[C@@H]3c4ccc(OC(=O)c5ccccc5)cc4CC[C@H]3[C@@H]1CC[C@@H]2OC1=CC2=CC[C@@H]3[C@H](CC[C@]4(C)C(=O)CC[C@@H]34)[C@@]2(C)CC1 | 31.6 mg | 53 mg |
| CC(=O)O[C@]1(C(C)=O)CC[C@H]2[C@@H]3CC=C4C=C(O[C@H]5CC[C@H]6[C@@H]7CCc8cc(OC(=O)c9ccccc9)ccc8[C@H]7CC[C@]56C)CC[C@]4(C)[C@H]3CC[C@@]21C | 23.3 mg | 27.5 mg |
| CC(=O)[C@H]1CC[C@H]2[C@@H]3CC=C4C=C(O[C@H]5CC[C@H]6[C@@H]7CCc8cc(OC(=O)c9ccccc9)ccc8[C@H]7CC[C@]56C)CC[C@]4(C)[C@H]3CC[C@]12C | 20.6 mg | 26.3 mg |
| C#C[C@]1(OC(=O)CCCCCC)CC[C@H]2[C@@H]3CC=C4C=C(O[C@H]5CC[C@H]6[C@@H]7CCc8cc(O)ccc8[C@H]7CC[C@]56C)CC[C@@H]4[C@H]3CC[C@@]21C | 22.1 mg | 33.8 mg |
| CCC(=O)O[C@H]1CC[C@H]2[C@@H]3CC[C@H]4CC(O[C@H]5CC[C@H]6[C@@H]7CCc8cc(OC(=O)c9ccccc9)ccc8[C@H]7CC[C@]56C)CC[C@]4(C)[C@H]3CC[C@]12C (stereo partly drawn) | inactive | inactive |
| C[C@]12CC[C@@H]3c4ccc(O)cc4CC[C@H]3[C@@H]1CC[C@@H]2OC1=CC2=CC[C@@H]3[C@H](CC[C@@]4(C)[C@H]3CC[C@]4(C)O)[C@@]2(C)CC1 | 33.5 mg | 48.1 mg |
| C[C@]12CC[C@@H]3c4ccc(O)cc4CC[C@H]3[C@@H]1CC[C@@H]2OC1=CC2=CC[C@@H]3[C@H](CC[C@]4(C)C(=O)CC[C@@H]34)[C@@]2(C)CC1 | 38.9 mg | 56.9 mg |
| C#C[C@]1(OC(C)=O)CC[C@H]2[C@@H]3CC=C4C=C(O[C@H]5CC[C@H]6[C@@H]7CCc8ccccc8[C@H]7CC[C@]56C)CC[C@@H]4[C@H]3CC[C@@]21C | inactive | inactive |
| C#C[C@]1(OC(C)=O)CC[C@H]2[C@@H]3CC=C4C=C(O[C@H]5CC[C@H]6[C@@H]7CCc8cc(OC(=O)c9ccccc9)ccc8[C@H]7CC[C@]56C)CC[C@@H]4[C@H]3CC[C@@]21C | 21.4 mg | 25.6 mg |
